# How the values were obtained:
# [1] = system: participants with episodic migraine; experiment: Study A: Headache Impact Test (HIT-6); format: in vivo, human; conditions: for HIT-6 change from baseline to week 12, MMRM LS mean change (SE) / HIT-6 change from baseline to week 12, mean (SD) / HIT-6 score, Week 12, mean (SD): mITT
# Method: In embodiments, the present disclosure provides a method for preventing migraine (such as a method for preventing migraine in patients having fewer than fifteen migraine days per month) wherein atogepant is administered in an amount of 10 mg QD, 30 mg QD, or 60 mg QD, wherein administration of atogepant results in a reduction in a 6-item Headache Impact Test (HIT-6) disability score relative to baseline. The Headache Impact Test (HIT-6) is a well-known tool for assessing migraine intensity, and uses six questions to measure the adverse impact of headache on, for example, social functioning, role functioning, vitality, cognitive functioning, and psychological distress. Responses are based on frequency using a 5-point verbal response scale ranging from “never” to “always”. The HIT-6 total score is the sum of the responses, and ranges from 36 to 78. See Yang et al., Validation of the Headache Impact Test (HIT-6™) Across Episodic and Chronic Migraine, Cephalalgia 2011 February; 31 (3): 357-367. In embodiments, treatment with atogepant results in a greater than five (≥5) point decrease in HIT-6 disability score.
# The Headache Impact Test (HIT-6, completed monthly) represented an additional exploratory measure. The HIT-6 test is a well-known tool for assessing migraine intensity that uses six questions to capture the impact of headache and its treatment on an individual's functional health and well-being. HIT-6 was completed monthly and was evaluated as the change from baseline in HIT-6 total score at weeks 4, 8, and 12.
# [2] = system: participants with episodic migraine; experiment: Study C: 40-week open-label extension, safety and tolerability of atogepant 60 mg once daily; format: in vivo, human
# Method: An open-label extension study for trial completers evaluated the long-term safety and tolerability of oral atogepant 60 mg daily for the prevention of migraine in participants with episodic migraine.
# Participants in this trial (Study C) rolled over from the lead in trial (Study A) and were treated with atogepant 60 mg once daily for 40-weeks, with a 4-week safety follow-up period. Only safety data were collected.
# Of 695 participants screened, a total of 685 participants took at least one dose of study medication and were included in the safety population. Overall, the mean age was 41.8 years. Female participants accounted for 88.2% of the Safety Population. White and Black or African American patients accounted for 84.4% and 12.6%, respectively. Mean BMI was 30.58 kg/m2.
# [3] = Atogepant 60 mg QD, Safety Population N = 685
compound,measurement,setting,value
C[C@@H]1[C@H](c2c(F)ccc(F)c2F)C[C@H](NC(=O)c2cnc3c(c2)C[C@@]2(C3)C(=O)Nc3ncccc32)C(=O)N1CC(F)(F)F [atogepant],"HIT-6 change to week 12, LSMD vs placebo (95% CI)",[1]; 10 mg QD,−3.2
same,"HIT-6 responders (≥5 point reduction), n/N (%)","[1]; 10 mg QD, Week 4",(48.6) %
same,"HIT-6 responders, odds ratio vs. placebo (95% CI)","[1]; 10 mg QD, Week 4",1.53
same,"HIT-6 responders (≥5 point reduction), n/N (%)","[1]; 10 mg QD, Week 8",(60.4) %
same,"HIT-6 responders, odds ratio vs. placebo (95% CI)","[1]; 10 mg QD, Week 8",1.79
same,"HIT-6 responders (≥5 point reduction), n/N (%)","[1]; 10 mg QD, Week 12",(64.5) %
same,"HIT-6 responders, odds ratio vs. placebo (95% CI)","[1]; 10 mg QD, Week 12",1.74
same,"HIT-6 change from baseline to week 12, MMRM LS mean change (SE)",[1]; 10 mg QD,−8.4
same,"HIT-6 change from baseline to week 12, mean (SD)",[1]; 10 mg QD,−8.3
same,"HIT-6 score, Week 12, mean (SD)",[1]; 10 mg QD,55.8
same,"HIT-6 change to week 12, LSMD vs placebo (95% CI)",[1]; 30 mg QD,−2.9
same,"HIT-6 responders (≥5 point reduction), n/N (%)","[1]; 30 mg QD, Week 4",(46.8) %
same,"HIT-6 responders, odds ratio vs. placebo (95% CI)","[1]; 30 mg QD, Week 4",1.43
same,"HIT-6 responders (≥5 point reduction), n/N (%)","[1]; 30 mg QD, Week 8",(62.2) %
same,"HIT-6 responders, odds ratio vs. placebo (95% CI)","[1]; 30 mg QD, Week 8",1.95
same,"HIT-6 responders (≥5 point reduction), n/N (%)","[1]; 30 mg QD, Week 12",(62.7) %
same,"HIT-6 responders, odds ratio vs. placebo (95% CI)","[1]; 30 mg QD, Week 12",1.54
same,"HIT-6 change from baseline to week 12, MMRM LS mean change (SE)",[1]; 30 mg QD,−8.1
same,"HIT-6 change from baseline to week 12, mean (SD)",[1]; 30 mg QD,−8.1
same,"HIT-6 score, Week 12, mean (SD)",[1]; 30 mg QD,56.1
same,"HIT-6 change to week 12, LSMD vs placebo (95% CI)",[1]; 60 mg QD,−4.0
same,"HIT-6 responders (≥5 point reduction), n/N (%)","[1]; 60 mg QD, Week 4",(56.2) %
same,"HIT-6 responders, odds ratio vs. placebo (95% CI)","[1]; 60 mg QD, Week 4",2.18
same,"HIT-6 responders (≥5 point reduction), n/N (%)","[1]; 60 mg QD, Week 8",(64.7) %
same,"HIT-6 responders, odds ratio vs. placebo (95% CI)","[1]; 60 mg QD, Week 8",2.25
same,"HIT-6 responders (≥5 point reduction), n/N (%)","[1]; 60 mg QD, Week 12",(65.2) %
same,"HIT-6 responders, odds ratio vs. placebo (95% CI)","[1]; 60 mg QD, Week 12",1.77
same,"HIT-6 change from baseline to week 12, MMRM LS mean change (SE)",[1]; 60 mg QD,−9.2
same,"HIT-6 change from baseline to week 12, mean (SD)",[1]; 60 mg QD,−9.9
same,"HIT-6 score, Week 12, mean (SD)",[1]; 60 mg QD,54.5
same,deaths observed,"[2]; 60 mg once daily, 40 weeks",No deaths
same,TEAE by Preferred Term: Corona virus infection,[2]; [3],15 (2.2) n (%)
same,TEAE by Preferred Term: Influenza,[2]; [3],17 (2.5) n (%)
same,"Deaths, participants","[2]; atogepant 60 mg once daily, 40 weeks, Safety Population N = 685",(0.0) %
